Measurements reported in US12486255B2, “Modulators of RAS GTPase” (Tosk, Inc., priority 2018, dated 2025).
Entries after “also recorded” stand apart in the source; their conditions may differ.

Legend:
[1] = tested on: SW480 cells implanted into nu/nu mice; test: Xenograft study; format: in vivo, nude mice (nu/nu); conditions: SW480 subcutaneous tumors in nu/nu mice, 2 mg/kg ip, 24 days post treatment, p<0.028 Student's t-test
Procedure: FIG. 10 Effect of Structure 2 on growth of SW480 cells implanted into nu/nu mice. Boxplots showing tumor volumes in nude mice 24 days post treatment ip with either 2 mg/kg Structure 2 or vehicle control (DMSO). Subcutaneous tumors were induced by subcutaneous inoculation in the right flank of 3×10^6 human colon cancer cell line SW480 in Matrigel. Treatment with Structure 2 was initiated 6 days post tumor implantation. Structure 2 was administrated ip at 2 mg/kg, while control was given vehicle DMSO. All animals were sacrificed at day 30. […] In the Figure, (*) designates p<0.028 compared to vehicle control by Student's t-test.
Female nude mice (nu/nu) were purchased from Simonsen Laboratories (Gilroy, CA). All experiments were performed with 4 to 6-week-old female mice. Mice were housed in a barrier unit in the Tosk Animal facility, kept in filter-top cages with water and food provided ad libitum, and were checked at least twice a week for clinical signs of disease and discomfort. Subcutaneous tumors are induced by subcutaneous inoculation in the right flank of 3×10^6 human colon cancer cell line SW480 in Matrigel. The tumors are allowed to grow and volumes (mm^3) are calculated weekly from digital caliper measurements as 0.5×length×width^2. Treatment was initiated 6 days post tumor implantation. Structure 2 was administrated ip at 2 mg/kg, while control was given vehicle DMSO. […]

[2] = tested on: HT29; test: Cytotoxicity assay, HT29 cells; format: cell-based; conditions: human colon cancer cell line HT29
Procedure: (§1) Compounds were assayed for inhibition of cell proliferation and killing cancer cells. Cytotoxicity assays were conducted according to the following general procedure. SW480, SW48, SW900, SW620 were all maintained in Leibowitz L15 media supplemented with 10% fetal bovine serum and 1% PenStrep and grown in a 37° C. incubator without supplemental CO2. Capan-1 cells were maintained in Iscove's Modified Dulbecco's Medium (ATCC 30-2005) containing 20% fetal bovine serum and 1% PenStrep and grown in a 37° C. incubator containing 5% CO2.

[3] = tested on: phosphorylated ERK 1/2 (T202/Y204); test: Phosphorylated ERK bioassay (Western blot, SW480 cells); format: cell-based, human; conditions: 3 μM, 24 hours, in the presence of serum
Procedure: As described herein, the main downstream target for kRAS is ERK (Samatar et al., Targeting RAS-ERK signaling in cancer: promises and challenges. Nat Rev Drug Discov. 2014; 13:928-42). kRAS activates ERK leading to phosphorylated ERK. A compound that suppresses kRAS activity is expected to lower phosphorylated ERK.
Test articles abrogate the expression of phosphorylated ERK (T202/Y204) SW480 cells were subjected to test article incubation at 3 μM for 24 hours in the presence of serum to mimic natural growth environment. Cells were extracted and total protein of samples normalized through BCA assay. Processed extracts were subjected to SDS-PAGE/Western blot and blotted for phosphorylated ERK 1/2 (T202/Y204); ERK 1/2; and α-Tubulin.
The compound U0126 in FIG. 8 is a MEK inhibitor which is known to suppress phosphorylation of ERK. The compound was tested along with the test articles to serve as a positive control.

[4] = Pharmacokinetic study in mice; format: in vivo; conditions: ip, 3 mg/kg, CD-1 mice, 3 mg/kg
Procedure: Pharmacokinetic studies were carried out using 10 weeks old CD-1 mice. Structure 2 and Structure 3 were injected ip, 3 mg/kg and 10 mg/kg, respectively, at 8 time points (0, 0.25, 0.5, 1, 2, 4, 8 and 24 hours post-dose). Blood was collected from 3 animals/time point and concentrations of Structure 2 in plasma determined using LC/MS.

[5] = tested on: SW48 cells; test: Cytotoxicity assay, CellTiter-Glo 2.0, SW48 cells; format: cell-based; conditions: SW48, human colon cancer cell line expressing wild type kRAS (EGF receptor mutation); 48 hours
Procedure: (§2) FIG. 3, panels A-B, illustrates the cytotoxicity of Structure 2 and Structure 3 on SW48 cells. The cytotoxicity of compounds of interest were tested against the human colon cancer cell line SW48 as described in the experimental section. SW48 cells express the wild type kRAS but are driven by an EGF receptor mutation G1255A. Compounds were incubated with cells for 48 hours and the assay was developed using Cell Titer Glo 2.0. IC50 vales were determined using GraphPad Prism 4.
as §1
(§3) For dose-response assays, SW480 cells were plated into 96 well plates (1 million/plate, ˜10,000/well, 250 μL media/well). Cells were allowed to settle and adhere to plate bottom overnight Compounds were placed in 500 μL media and mixed. […] Luminescence was read with FLx800 (BioTek Instruments).

[6] = tested on: H322; test: Cytotoxicity assay, H322 cells; format: cell-based; conditions: H322, human lung cancer cell line expressing wild type kRAS
Procedure: as §1

[7] = tested on: cardiomyocyte cell line H9C2; test: Cytotoxicity assay, H9C2 cells; format: cell-based; conditions: rat cardiomyocyte cell line H9C2
[8] = tested on: Capan-1 cells; test: Cytotoxicity assay, CellTiter-Glo 2.0, Capan-1 cells; format: cell-based; conditions: Capan 1, human pancreatic cancer cell line expressing kRAS G12V; 48 hours
Procedure: as §2, with “5,” for “3,”, “Capan-1” for “SW48”, “pancreatic” for “colon”, “a mutant G12V kRAS.” for “the wild type kRAS but are driven by an EGF receptor mutation G1255A.”
as §1
as §3, with “mixed. Then 250 μL compounds+media was placed in an intermediate plate in row A. Rows B through H were filled with 125 μL media.” for “mixed.”

[9] = tested on: A431; test: Cytotoxicity assay, A431 cells; format: cell-based; conditions: A431, human epidermoid carcinoma cell line expressing wild type kRAS
Procedure: as §1

Cc1nc(-c2ccc(CNC(=O)c3cc(CC(C)C)nn3C)cc2)no1 [Structure 2, 3-isobutyl-1-methyl-N-(4-(5-methyl-1,2,4-oxadiazol-3-yl)benzyl)-1H-pyrazole-5-carboxamide]
tumor volume versus vehicle control [1]: statistically significant reduction in tumor volume; also recorded: mitigates the growth of SW480 cells | not cytotoxic at concentrations up to [2]: > 40 µM | phosphorylated ERK (T202/Y204) [3]: dramatically decrease phosphorylated ERK | Vd/F ([4]; CD-1, mouse, plasma, plasma, read-out: Vz/F): 0.532 L/kg | mean resident times (MRT) [4]: approximately one to two | AUCINF ([4]; plasma): 10.92 (Microgram * Hour)/mL | AUC_%Extrap ([4]; plasma): 1.92% | AUClast ([4]; plasma): 10.71 (Microgram * Hour)/mL | CI/F ([4]; plasma): 4.58 mL/min/kg | Concentrationmax ([4]; plasma): 5.74 Microgram/mL | Lambda_z ([4]; plasma): 0.53 h⁻¹ | MRTINF ([4]; plasma): 2.15 h | MRTlast ([4]; plasma): 2.00 h | Timelast ([4]; plasma): 8.00 h | concentration at 8 Hour ([4]; mouse, plasma, read-out: Concentrationlast): 110 ng/mL | IC50 [5]: 607 nM | not cytotoxic at concentrations up to [6]: > 200 µM | not cytotoxic at concentrations up to [7]: > 40 µM | IC50 [8]: 1300 nM | not cytotoxic at concentrations up to [9]: > 40 µM
